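How tested: cells in 96-well plates exposed to compound for 48 hours at five concentrations. GI50: concentration for 50% inhibition of growth.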 Calls of active or inactive are those of the source. No stated cut-off is given here; in the data, active = GI50 up to about 1.1 µM and inactive = higher.
Columns and labels:
Experiment in all cases: inhibition of tumour cell growth, NCI panel, 48 h
HCT-15 = test system: HCT-15
SW-620 = test system: SW-620
Malme-3M = test system: Malme-3M
NCI/ADR-RES = test system: NCI/ADR-RES
NCI-H522 = test system: NCI-H522
CCRF-CEM = test system: CCRF-CEM
SR = test system: SR
HCT-116 = test system: HCT-116
SN12C = test system: SN12C
COLO 205 = test system: COLO 205
HOP-92 = test system: HOP-92
M14 = test system: M14
CAKI-1 = test system: CAKI-1
MDA-MB-435 = test system: MDA-MB-435
HCC 2998 = test system: HCC 2998
SF-539 = test system: SF-539
UO-31 = test system: UO-31
786-0 = test system: 786-0
IGROV-1 = test system: IGROV-1
SNB-19 = test system: SNB-19
HT-29 = test system: HT-29
OVCAR-3 = test system: OVCAR-3
TK-10 = test system: TK-10
PC-3 = test system: PC-3
NCI-H460 = test system: NCI-H460
Hs-578T = test system: Hs-578T
DU-145 = test system: DU-145
A549 = test system: A549
U-251 = test system: U-251
LOX IMVI = test system: LOX IMVI
T47D = test system: T47D
OVCAR-4 = test system: OVCAR-4
KM12 = test system: KM12
HL-60 = test system: HL-60
OVCAR-8 = test system: OVCAR-8
MDA-N = test system: MDA-N
MDA-MB-231 = test system: MDA-MB-231
SK-MEL-2 = test system: SK-MEL-2
RPMI-8226 = test system: RPMI-8226
SK-MEL-28 = test system: SK-MEL-28
NCI-H23 = test system: NCI-H23
SK-OV-3 = test system: SK-OV-3
MCF7 = test system: MCF7
MOLT-4 = test system: MOLT-4
UACC-257 = test system: UACC-257
K562 = test system: K562
A498 = test system: A498
OVCAR-5 = test system: OVCAR-5
SF-268 = test system: SF-268
SK-MEL-5 = test system: SK-MEL-5
EKVX = test system: EKVX
SNB-75 = test system: SNB-75
RXF 393 = test system: RXF 393
ACHN = test system: ACHN
NCI-H226 = test system: NCI-H226
HOP-62 = test system: HOP-62
SF-295 = test system: SF-295
BT-549 = test system: BT-549
UACC-62 = test system: UACC-62

C=CCNC(=O)NNC(O)(C(=O)OCC)C(F)(F)F (centres undefined)
GI50 (HCT-15): > 100 µM
GI50 (SW-620): > 100 µM (inactive)
GI50 (Malme-3M): > 100 µM (inactive)
GI50 (NCI/ADR-RES): > 100 µM (inactive)
GI50 (NCI-H522): > 100 µM (inactive)
GI50 (CCRF-CEM): > 100 µM (inactive)
GI50 (SR): > 100 µM (inactive)
GI50 (HCT-116): > 100 µM (inactive)
GI50 (SN12C): > 100 µM (inactive)
GI50 (COLO 205): > 100 µM (inactive)
GI50 (HOP-92): > 100 µM (inactive)
GI50 (M14): > 100 µM (inactive)
GI50 (CAKI-1): > 100 µM (inactive)
GI50 (MDA-MB-435): > 100 µM (inactive)
GI50 (HCC 2998): > 100 µM (inactive)
GI50 (SF-539): > 100 µM (inactive)
GI50 (UO-31): > 100 µM (inactive)
GI50 (786-0): > 100 µM (inactive)
GI50 (IGROV-1): > 100 µM (inactive)
GI50 (SNB-19): > 100 µM (inactive)
GI50 (HT-29): > 100 µM (inactive)
GI50 (OVCAR-3): > 100 µM (inactive)
GI50 (TK-10): > 100 µM (inactive)
GI50 (PC-3): > 100 µM (inactive)
GI50 (NCI-H460): > 100 µM (inactive)
GI50 (Hs-578T): > 100 µM (inactive)
GI50 (DU-145): > 100 µM (inactive)
GI50 (A549): > 100 µM (inactive)
GI50 (U-251): > 100 µM (inactive)
GI50 (LOX IMVI): > 100 µM (inactive)
GI50 (T47D): > 100 µM (inactive)
GI50 (OVCAR-4): > 100 µM (inactive)
GI50 (KM12): > 100 µM (inactive)
GI50 (HL-60): > 100 µM (inactive)
GI50 (OVCAR-8): > 100 µM (inactive)
GI50 (MDA-N): > 100 µM (inactive)
GI50 (MDA-MB-231): > 100 µM (inactive)
GI50 (SK-MEL-2): > 100 µM (inactive)
GI50 (RPMI-8226): > 100 µM (inactive)
GI50 (SK-MEL-28): > 100 µM (inactive)
GI50 (NCI-H23): > 100 µM (inactive)
GI50 (SK-OV-3): > 100 µM (inactive)
GI50 (MCF7): > 100 µM (inactive)
GI50 (MOLT-4): > 100 µM (inactive)
GI50 (UACC-257): > 100 µM (inactive)
GI50 (K562): > 100 µM (inactive)
GI50 (A498): > 100 µM (inactive)
GI50 (OVCAR-5): > 100 µM (inactive)
GI50 (SF-268): > 100 µM (inactive)
GI50 (SK-MEL-5): > 100 µM (inactive)
GI50 (EKVX): > 100 µM (inactive)
GI50 (SNB-75): > 100 µM (inactive)
GI50 (RXF 393): > 100 µM (inactive)
GI50 (ACHN): > 100 µM (inactive)
GI50 (NCI-H226): > 100 µM (inactive)
GI50 (HOP-62): > 100 µM (inactive)

COc1cc2c[n+](C)c3c4cc(OC)c(OC)cc4ccc3c2cc1OC
GI50 (HCT-15): > 100 µM
GI50 (SF-295): > 100 µM (inactive)
GI50 (SW-620): 91.2 µM (inactive)
GI50 (CCRF-CEM): 35.3 µM (inactive)
GI50 (BT-549): 32.1 µM (inactive)
GI50 (HCT-116): > 100 µM (inactive)
GI50 (UACC-62): > 100 µM (inactive)
GI50 (COLO 205): 15.8 µM (inactive)
GI50 (M14): > 100 µM (inactive)
GI50 (CAKI-1): > 100 µM (inactive)
GI50 (MDA-MB-435): > 100 µM (inactive)
GI50 (HCC 2998): > 100 µM (inactive)
GI50 (UO-31): > 100 µM (inactive)
GI50 (786-0): > 100 µM (inactive)
GI50 (OVCAR-3): 29.1 µM (inactive)
GI50 (PC-3): 72.9 µM (inactive)
GI50 (DU-145): 25.4 µM (inactive)
GI50 (A549): > 100 µM (inactive)
GI50 (OVCAR-4): 55.3 µM (inactive)
GI50 (SK-MEL-2): > 100 µM (inactive)
GI50 (RPMI-8226): 48 µM (inactive)
GI50 (SK-MEL-28): > 100 µM (inactive)
GI50 (SK-OV-3): > 100 µM (inactive)
GI50 (UACC-257): > 100 µM (inactive)
GI50 (K562): 26.1 µM (inactive)
GI50 (EKVX): > 100 µM (inactive)
GI50 (ACHN): > 100 µM (inactive)

C[C@]12C[C@@H](OC(=O)[C@]1(C)O)[C@@H]([C@]1(O)CC[C@H]3[C@@H]4C[C@H]5O[C@]56C[C@H]5O[C@H]5C(=O)[C@]6(C)[C@H]4CC[C@@]31C)C2
GI50 (HCT-15): > 50 µM
GI50 (SF-295): > 50 µM (inactive)
GI50 (SW-620): > 50 µM (inactive)
GI50 (Malme-3M): > 5 µM (inactive)
GI50 (NCI/ADR-RES): > 50 µM (inactive)
GI50 (NCI-H522): > 50 µM (inactive)
GI50 (CCRF-CEM): > 50 µM (inactive)
GI50 (SR): 14.7 µM (inactive)
GI50 (HCT-116): > 50 µM (inactive)
GI50 (UACC-62): > 50 µM (inactive)
GI50 (SN12C): > 50 µM (inactive)
GI50 (COLO 205): > 50 µM (inactive)
GI50 (HOP-92): > 50 µM (inactive)
GI50 (M14): > 50 µM (inactive)
GI50 (CAKI-1): > 50 µM (inactive)
GI50 (MDA-MB-435): > 50 µM (inactive)
GI50 (HCC 2998): > 50 µM (inactive)
GI50 (SF-539): > 50 µM (inactive)
GI50 (UO-31): > 50 µM (inactive)
GI50 (786-0): > 50 µM (inactive)
GI50 (IGROV-1): > 50 µM (inactive)
GI50 (SNB-19): > 50 µM (inactive)
GI50 (HT-29): > 50 µM (inactive)
GI50 (TK-10): > 50 µM (inactive)
GI50 (PC-3): > 50 µM (inactive)
GI50 (NCI-H460): > 50 µM (inactive)
GI50 (Hs-578T): > 50 µM (inactive)
GI50 (DU-145): > 50 µM (inactive)
GI50 (A549): > 50 µM (inactive)
GI50 (U-251): > 50 µM (inactive)
GI50 (T47D): > 50 µM (inactive)
GI50 (OVCAR-4): 27.5 µM (inactive)
GI50 (KM12): > 50 µM (inactive)
GI50 (HL-60): > 50 µM (inactive)
GI50 (OVCAR-8): > 50 µM (inactive)
GI50 (MDA-N): > 50 µM (inactive)
GI50 (MDA-MB-231): > 50 µM (inactive)
GI50 (SK-MEL-2): > 50 µM (inactive)
GI50 (RPMI-8226): > 50 µM (inactive)
GI50 (SK-MEL-28): > 50 µM (inactive)
GI50 (NCI-H23): > 50 µM (inactive)
GI50 (SK-OV-3): > 50 µM (inactive)
GI50 (MCF7): > 50 µM (inactive)
GI50 (MOLT-4): > 50 µM (inactive)
GI50 (UACC-257): > 50 µM (inactive)
GI50 (K562): > 50 µM (inactive)
GI50 (A498): > 50 µM (inactive)
GI50 (OVCAR-5): > 50 µM (inactive)
GI50 (SF-268): > 50 µM (inactive)
GI50 (SK-MEL-5): > 50 µM (inactive)
GI50 (EKVX): > 50 µM (inactive)
GI50 (SNB-75): 36 µM (inactive)
GI50 (RXF 393): > 50 µM (inactive)
GI50 (ACHN): > 50 µM (inactive)
GI50 (NCI-H226): > 50 µM (inactive)
GI50 (HOP-62): > 50 µM (inactive)

From ChEMBL document CHEMBL1201862, “PubChem BioAssay data set” (2004)
